The source of these data is patent US6921767B2, “Cycloalkyl alkanoic acids as integrin receptor antagonists derivatives” (Pharmacia Corporation, priority 2000, dated 2005).

This experiment is described as follows: IC50 test to confirm desired/undesired isomer (assay not specified). The settings on record: qualitative outcome only, no number given.

As to `CN1CCNc2nc(CCOc3ccc(C4CC4CC(=O)O)cc3)ccc21` (single isomer, unassigned; (+)) [Example 81, ((+)-2-{4-[2-(1-methyl-1,2,3,4-tetrahydropyrido[2,3-b]pyrazin-^6-yl)ethoxy]phenyl}cyclopropyl)acetic acid], the “tested for IC50 to confirm as desired / undesired compound” value (“tested … as desired / undesired compound” below) was “desired compound”.
Regarding `Cl.O=C(O)CC1C(c2ccc(OCCc3ccc4c(n3)NCCC4)cc2)C1(Cl)Cl` (single isomer, unassigned) [Example 85, first peak, (2,2-Dichloro-3-{4-[2-(5,6,7,8-tetrahydro-1,8-naphthyridin-2-yl)ethoxy]phenyl}cyclopropyl)acetic acid hydrochloride], the “tested … as desired / undesired compound” value (hydrochloride) is “undesired isomer”.
In the case of `CN1CCNc2nc(CCOc3ccc(C4CC4CC(=O)O)cc3)ccc21` (single isomer, unassigned; (-)) [Example 82, ((−)-2-{4-[2-(1-methyl-1,2,3,4-tetrahydropyrido[2,3-b]pyrazin-6-yl)ethoxy]phenyl}cyclopropyl)acetic acid], the “tested … as desired / undesired compound” value was “undesired compound”.
Regarding `Cl.O=C(O)CC1C(c2ccc(OCCc3ccc4c(n3)NCCC4)cc2)C1(Cl)Cl` (single isomer, unassigned) [Example 85, second peak, (2,2-Dichloro-3-{4-[2-(5,6,7,8-tetrahydro-1,8-naphthyridin-2-yl)ethoxy]phenyl}cyclopropyl)acetic acid hydrochloride], the “tested … as desired / undesired compound” value (hydrochloride) was “desired compound”.
